These results are taken from patent publication US11541044B2, “K-Ras modulators” (The Regents of the University of California, priority 2015, dated 2023).

One data set has as its system Kras. The data set is described as follows: Interaction of FB9 with Kras in the absence or presence of BME. The settings on record: RT. It counts as binding, human.
Data set [1] in a line: Reactivity of FB9 with BME. The settings on record: 1 mM FB9, 5 mM BME, 37° C., 55 minutes. The format is physicochemical. As to the method: FIGS. 20A-20C. Reactivity of Tetrafluorophenoxy-6B9 (FB9) with BME; experiment was done with 1 mM FB9 and minus or plus 5 mM BME at 37° C.
Data set [2] deals with Ras-less cells exogenously expressing K-Ras G12D. In words: EGF stimulation plus FB9 in G12D expressing RAS-less MEFS. It counts as cell-based. The conditions noted are these: EGF for 30 and 60 minutes, FB9 at various concentrations. As to the method:
FIG. 22. Cell Based Assays with G12D expressing RAS-less MEFS; Ras-less cells exogenously expressing K-Ras G12D were stimulated with EGF for 30 and 60 minutes. Concomitantly FB9 was added at various concentrations. Similar experiments were done with pancreatic cell lines expressing various oncogenic mutations. […] Growth curves were also performed.

Data set [3] deals with T1, KRAS4b (1-188), unprocessed (Homo sapiens, UniProt P01116).
T1 construct: G (one extra N-terminal glycine before Met1, remnant of the construct) (N); made in house; host or cells: E. coli
In words: MALDI-TOF analysis of modification of unprocessed KRAS4b. The format is binding. Here is the method: FIG. 27. Comparing Gel Mobility and Antibody Reactivity of Different Purified K-Ras 4B Forms. E. Coli: unprocessed K-ras 4B purified from E. coli. Fme: processed K-ras 4B purified from SF9 cells. FB9: unprocessed K-ras 4B labeled with FB9 to about 70%.
Chemical modification of unprocessed KRAS-4b at His-95 (protein G-Hs.KRAS4b(1-188), mass (average) 21481.59 Da.
KRAS4b (FIG. 43) was modified by FB9 in vitro (using 8.8-fold molar excess of FB9 for 1 h at 37° C., followed by 16 h at room temperature, 22° C.). […] Molecular species with 1 and 2 and 3 modification groups were present (FIG. 44).
To identify the modified amino acid residues, the protein preparation was digested by protease Glu-C. […] Peptide with m/z 1735 corresponds to sequence GKKKKKKSKTKCVIM (SEQ ID NO: 3) (174-189) and m/z 2085 corresponds to the same peptide modified by FB9 at Cys-186 (confirmed by fragmentation).
To identify other potential residues modified by FB9, peptides obtained after digestion by Glu-C were further digested by trypsin (FIG. 46A).

The target of another data set is T2, fmeKRAS4b (Homo sapiens, UniProt P01116).
T2 construct: GG (two N-terminal glycines in place of Met1, remnant of the construct) (N); made in house; host or cells: SF9 insect cells
The data set is described as follows: MALDI-TOF analysis of modification of processed (farnesylated, carboxymethylated) KRAS4b. The format is binding. Here is the method: FIG. 36. Modification of fmeKRAS4b by FB9. Recombinant fmeKRAS4b was loaded with GDP or GppNHp (a nonhydrolyzable analogue of GTP), then reacted with FB9 at 37° C. for 100 min.
Modification of processed (farnesylated and carboxylmethylated KRAS4b). Protein prep GG-HsKRAS-4b, RP1151105092454 FmeKRAS4b (FIG. 47A) was modified by FB9 with 7.6-fold molar excess of FB9 for 1 h at 37° C., followed by 16 h at room temperature (22° C.). […] To identify the modified amino acid residues protein preparation was digested by trypsin.
During fragmentation, these modified peptides yielded intensive fragment corresponding to unmodified peptide and fragments of peptide (mostly without modification).
These peptides were modified on His residues. To identify which His was modified (i.e. 95 or 96 in the sequence of used recombinant KRAS) fragmentation spectra were analyzed in BioTools when FB9 modification (C17H20Cl1N2O4, 350/351) was set on one of these His residues in Sequence Editor.
In fragmentation spectrum of 1554 a fragment 825.409 was present but not in a spectrum of 1203. When FB9 modification was on His-7 this fragment was assigned by BioTools as modified y-3. Manual examination of the spectrum confirmed this conclusion.

In a further data set the target is T3, K-Ras G12D (Homo sapiens, UniProt P01116, G12D).
T3 construct: Rec full length G12D became loaded with either GDP or GTPyS and Mg2+; His tag
The data set is described as follows: Covalent binding of electrophile compounds to K-Ras G12D (mass spectrometry). As to the method: FIGS. 13A-13E. […] FIG. 13B and FIG. 13D were performed after 5 hours. FIG. 13C and FIG. 13E were performed at 23 hours.
FIGS. 15A-15D. Experiments with Stereoisomers of Difluorophenoxy-6B9; Kras G12D/GTPyS/Mg2+, DMSO control, 2 h incubation at RT; The binding of FB9 to Kras G12D was compared with the stereoisomers of Difluorophenoxy-6B9 (53, 54); FB9 bound 100% after 2 h incubation; Difluorophenoxy-6B9 (compound ‘53’) bound to about 62% compared to FB9 under the same condition; The stereoisomer (‘54’) of compound ‘53’ bound to roughly 35% compared to FB9 which is roughly 50% of compound ‘53’; Partial stereospecific interaction.

Structures are written as SMILES. Entries after “also recorded” stand apart in the source; their conditions may differ.

Consider `COc1ccc(Cl)cc1C(=O)N1CCC[C@H](C(=O)NCC(=O)COc2c(F)c(F)cc(F)c2F)C1` [FB9, (3S)-1-[(5-Chloro-2-methoxyphenyl)carbonyl]-N-[2-oxo-3-(2,3,5,6-tetrafluorophenoxy)propyl]piperidine-3-carboxamide], for which, in the data set with Kras, the “reactivity with Kras when BME is titrated in” value was “reactivity of the compound being reduced”. In data set [1], the “product formed with BME (reduction of the free compound peak)” value is reported as “about 25%”. Besides, the K-Ras protein levels result in data set [2] was “Changes at K-Ras protein levels are visible”. Also, in data set [3] (8.8-fold molar excess of FB9, 1 h at 37° C., then 16 h at 22° C.), the “extent of chemical modification of unprocessed KRAS4b” value is reported as “close to complete”. Besides, the “unprocessed K-ras 4B labeled with FB9” value in data set [3] (protein preparation used for gel mobility comparison) is given as “about 70%”. Moreover, the “extent of chemical modification of FmeKRAS4b” value on fmeKRAS4b (7.6-fold molar excess of FB9, 1 h at 37° C., then 16 h at 22° C.) was “major form represented species with 1 added modification group”. Moreover, on fmeKRAS4b (37° C. for 100 min, 350 Da mass addition), the “covalent modification, GDP versus GppNHp loaded protein” value is “more pronounced when GTP analogue was present”. In addition, the “residue modified in FME-Kras4B” value on fmeKRAS4b (recombinant farnesylated-carboxymethylated protein) is given as “covalently modifies histidine 95 residue (H95); also recorded: His7 (i.e. H95 in the native protein) is modified”. Further, the “bound better than enantiomer FB9D” value on K-Ras G12D (K-Ras (G12D), GTPyS/Mg, 50 μM for 2.5 h at RT) is on record as 25-30%. Further, the “labelling at a second site” value at K-Ras G12D (K-Ras/GDP/Mg2+, 5 h) is “significantly labelled at a second site after 5 h”. For the same compound, on K-Ras G12D (Kras G12D/GTPyS/Mg2+, 2 h incubation at RT), the “bound to Kras G12D” value is 100%. Besides, the “binding to GTPyS versus GDP bound K-Ras G12D” value at K-Ras G12D (~10 μM protein, 100 μM compound, RT, 5 and 23 hours) is “bound better when K-Ras was in complex with GTPyS/Mg2+”.
